This experiment deals with Acetylcholinesterase (Electrophorus electricus, UniProt O42275). Kind of experiment: Inhibition of electric eel AChE.
Acetylcholinesterase, sequence (O42275 whole entry): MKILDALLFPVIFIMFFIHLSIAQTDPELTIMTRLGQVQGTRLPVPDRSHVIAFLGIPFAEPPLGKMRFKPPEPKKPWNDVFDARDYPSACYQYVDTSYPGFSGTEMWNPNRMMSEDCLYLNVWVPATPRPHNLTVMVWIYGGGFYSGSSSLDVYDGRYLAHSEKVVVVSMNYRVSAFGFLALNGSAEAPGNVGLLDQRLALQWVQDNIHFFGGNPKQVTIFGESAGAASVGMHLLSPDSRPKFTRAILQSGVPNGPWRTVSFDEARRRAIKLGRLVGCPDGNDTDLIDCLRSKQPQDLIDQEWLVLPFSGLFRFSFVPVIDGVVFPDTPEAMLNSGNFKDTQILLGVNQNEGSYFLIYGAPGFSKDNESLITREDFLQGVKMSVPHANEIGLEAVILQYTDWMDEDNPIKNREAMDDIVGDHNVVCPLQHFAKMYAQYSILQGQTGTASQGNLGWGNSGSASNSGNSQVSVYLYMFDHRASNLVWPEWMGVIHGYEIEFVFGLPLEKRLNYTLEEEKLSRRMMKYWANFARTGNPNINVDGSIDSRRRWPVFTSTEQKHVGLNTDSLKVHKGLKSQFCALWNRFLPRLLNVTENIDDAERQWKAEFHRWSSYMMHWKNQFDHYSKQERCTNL
Broadly, the IC50 is the concentration at which inhibition is half-maximal. Low values mean greater potency, high ones weaker potency. In turn, `COC(=O)[C@@H]1[C@H]2C[C@H]3c4[nH]c5ccccc5c4CCN3C[C@@H]2CC[C@@H]1O` [YOHIMBINE] showed an IC50 of 431 µM. The figure for `CC[C@@H]1CCCN(CCc2c(C(C)=O)[nH]c3ccccc23)C1` [CROOKSIDINE] is 175 µM; for `C/C=C1/CN2CC[C@]34C(=C(C(=O)OC)[C@H]1C[C@H]23)Nc1ccccc14` [AKUAMMICINE] it is 221 µM; for `CC[C@H]1[C@@H]2CCN3CC[C@@]4(C(=C2C(=O)OC)Nc2ccccc24)[C@@H]13` [TUBOTAIWINE] it is 108 µM. Compound `C/C=C1/CN2CC[C@@]34c5ccccc5N(C)[C@H]5O[C@]3(O)[C@@H]2C[C@@H]1[C@]54C(=O)OC` [LANCEOMAGINE] displayed an IC50 of 383 µM.

`CCC(=O)N1c2c(O)cccc2[C@]23CCN4CCC[C@@]5(CC[C@@H]12)CC(=O)O[C@@]453` [CIMICINE] yielded an IC50 of 241 µM.

For `C/C=C1/CN2[C@H]3Cc4c([nH]c5ccccc45)[C@@H]2C[C@@H]1[C@]3(CO)C(=O)OC` [AKUAMMIDINE], the IC50 turned out to be 188 µM. The figure for `C/C=C1\CN2[C@H]3C[C@H]1C(C(=O)OC)[C@@H]2Cc1c3n(C)c2ccc(OC)cc12` (some centres not stated) is 135 µM. As to `CCc1[nH]c2ccccc2c1CCN1CCCC(CC)C1` (configuration not stated) [DECARBOMETHOXYTETRAHYDROSECODINE], the IC50 turned out to be 203 µM. Turning to `COc1c([C@@]23CCN(C)[C@]4(CCC(=O)N4c4c(O)cccc42)C3=O)cc2c(c1OC)N(C)[C@@H]1C=C[C@@]34CCCN5CC[C@@]21[C@]53OC(=O)C4` [HAPLOPHYTINE], the IC50 amounted to 225 µM. In turn, `CCC(=O)N1c2c(ccc(OC)c2O)[C@]23CCN4CCC[C@@]5(CC[C@@H]12)CC(=O)O[C@@]453` [CIMICIDINE] showed an IC50 of 197 µM. `C/C=C1/CN2CC[C@]34c5cccc(OC)c5N[C@H]3C[C@H]1C[C@H]24` came in with an IC50 of 57 µM.

The values are drawn from ChEMBL document CHEMBL1158198, “Indole Alkaloids of Haplophyton crooksii 1” (J Nat Prod, 1996).
